Laboratory results reported in the supplement of paper PMC11061612.

Key:
EW-3 (Ewing's Sarcoma) = assay: Bliss excess, mean over the matrix (fraction); higher = more synergy
In short: (§1)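 Cell lines grown in DMEM/F12 or RPMI with 10% FBS were plated in 1536-well plates and held 24 hours at 37°C, 5% CO2 before 72 hours of exposure to two-drug dose matrices, with DMSO typically at 0.2%. CellTiter-Glo 2.0 luminescence gave viability, which was converted to inhibition. Vehicle wells were set to 0 and blank wells to 1. Combination Emax is the second-highest inhibition in the matrix, and Bliss excess is the observed combination effect minus the expected EA + EB − EA·EB, where EA and EB are the single-agent effects.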

[1] = system: HuP-T3 (Pancreatic Carcinoma); assay: as above
In short: as §1

[2] = system: NCI-H1573 (Lung Adenocarcinoma); assay: as above
In short: as §1

[3] = system: NCI-N87 (Gastric Carcinoma); assay: as above
In short: as §1

[4] = system: OCUB-M (Breast Carcinoma); assay: as above
In short: as §1

U-87-MG (Glioblastoma) [5] = assay: as above
In short: as §1

[6] = system: VMRC-LCD (Lung Adenocarcinoma); assay: as above
In short: as §1

[7] = system: EBC-1 (Squamous Cell Lung Carcinoma); assay: combination Emax (second highest fraction inhibited in the dose matrix, 72 h); higher = more inhibition; extreme values may be limits of the assay
In short: as §1

[8] = system: EMC-BAC-2 (Non-Small Cell Lung Carcinoma); assay: as above
In short: as §1

EW-13 (Ewing's Sarcoma) = assay: as above
In short: as §1

GI-1 (Glioblastoma) = assay: as above
In short: as §1

IMR-5 (Neuroblastoma) = assay: as above
In short: as §1

[9] = system: KINGS-1 (Low Grade Glioma); assay: as above
In short: as §1

[10] = system: KLE (Endometrial Carcinoma); assay: as above
In short: as §1

[11] = system: KYSE-150 (Esophageal Squamous Cell Carcinoma); assay: as above
In short: as §1

[12] = system: KYSE-50 (Esophageal Squamous Cell Carcinoma); assay: as above
In short: as §1

[13] = system: NCI-H513 (Other Solid Carcinomas); assay: as above
In short: as §1

[14] = system: OCUB-M (Breast Carcinoma); assay: as above
In short: as §1

[15] = system: PFSK-1 (Other Solid Carcinomas); assay: as above
In short: as §1

U-87-MG (Glioblastoma) [16] = assay: as above
In short: as §1
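For Bliss excess, mean over the matrix in this document: after 72 h of two-drug dosing.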

SMILES | Bliss excess (EW-3 (Ewing's Sarcoma)) | Bliss excess [1] | Bliss excess [2] | Bliss excess [3] | Bliss excess [4] | Bliss excess (U-87-MG (Glioblastoma) [5]) | Bliss excess [6] | combination Emax [7] | combination Emax [8] | combination Emax (EW-13 (Ewing's Sarcoma)) | combination Emax (GI-1 (Glioblastoma)) | combination Emax (IMR-5 (Neuroblastoma)) | combination Emax [9] | combination Emax [10] | combination Emax [11] | combination Emax [12] | combination Emax [13] | combination Emax [14] | combination Emax [15] | combination Emax (U-87-MG (Glioblastoma) [16])
Cc1c2c(nn1C)CSCc1cc(n(C)n1)CSc1cc(c3ccccc3c1)OCCCc1c(C(=O)O)n(C)c3c-2c(Cl)ccc13 [AZD5991] + Cn1cnc2c(F)c(Nc3ccc(Br)cc3Cl)c(C(=O)NOCCO)cc21 [Selumetinib] (first compound max 1 µM, 7x7, partner max 3 µM) | -0.0435 | 0.032 | -0.0059 | 0.0633 | 0.0322 | -0.0073 | -0.0229 | 0.827 | 0.834 | 0.338 | 0.726 | 0.983 | 0.354 | 0.287 | 0.488 | 0.292 | 0.473 | 0.979 | 1 | 0.372
NC1(C(=O)N[C@@H](CCO)c2ccc(Cl)cc2)CCN(c2ncnc3[nH]ccc23)CC1 [Capivasertib] + CC(=O)c1c(C)c2cnc(Nc3ccc(N4CCNCC4)cn3)nc2n(C2CCCC2)c1=O [Palbociclib] (first compound max 10 µM, 7x7, partner max 10 µM) | 0.0062 | -0.0457 | -0.0204 | -0.0066 | -0.0127 | -0.0097 | -0.0153 | 0.612 | 0.663 | 0.296 | 0.626 | 0.581 | 0.414 | 0.377 | 0.644 | 0.326 | 0.368 | 0.994 | 0.489 | 0.585
NC1(C(=O)N[C@@H](CCO)c2ccc(Cl)cc2)CCN(c2ncnc3[nH]ccc23)CC1 [Capivasertib] + CC(C)n1c(=O)n(C)c2cnc3cc(F)c(-c4ccc(OCCCN5CCCCC5)nc4)cc3c21 [AZD1390] (first compound max 10 µM, 7x7, partner max 0.3 µM) | -0.0908 | -0.0444 | -0.111 | -0.0223 | -0.0424 | -0.0703 | -0.0297 | 0.322 | 0.462 | 0.28 | 0.658 | 0.161 | 0.374 | 0.43 | 0.375 | 0.14 | 0.171 | 1 | 0.462 | 0.578
NC1(C(=O)N[C@@H](CCO)c2ccc(Cl)cc2)CCN(c2ncnc3[nH]ccc23)CC1 [Capivasertib] + CCN(CCO)CCCOc1ccc2c(Nc3cc(CC(=O)Nc4cccc(F)c4)[nH]n3)ncnc2c1 [AZD2811] (first compound max 10 µM, 7x7, partner max 1 µM) | 0.0117 | -0.0317 | -0.0074 | -0.0529 | -0.0217 | 0.0175 | 0.0111 | 0.395 | 0.564 | 0.388 | 0.754 | 1 | 0.429 | 0.332 | 0.536 | 0.388 | 0.19 | 1 | 0.532 | 0.648
